# Laboratory results published in ChEMBL document CHEMBL1201862, “PubChem BioAssay data set” (2004).
#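 Protocol summary: plate cells (96-well), add compound at 5 concentrations, incubate 48 h, interpolate endpoints linearly. Abbreviation: GI50, concentration required for 50% inhibition of growth.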 The source made the active and inactive calls. No stated cut-off is given here; in the data, active = GI50 up to about 1.1 µM and inactive = higher.
# Columns and labels:
# Assay in all cases: DTP human tumour cell line panel, 48 h
# MDA-N = tested on: MDA-N
# HT-29 = tested on: HT-29
# 786-0 = tested on: 786-0
# SK-OV-3 = tested on: SK-OV-3
# PC-3 = tested on: PC-3
# OVCAR-4 = tested on: OVCAR-4
# HOP-92 = tested on: HOP-92
# UO-31 = tested on: UO-31
# HL-60 = tested on: HL-60
# OVCAR-3 = tested on: OVCAR-3
# OVCAR-5 = tested on: OVCAR-5
# HOP-62 = tested on: HOP-62
# T47D = tested on: T47D
# HCC 2998 = tested on: HCC 2998
# SF-295 = tested on: SF-295
# SR = tested on: SR
# SNB-75 = tested on: SNB-75
# RXF 393 = tested on: RXF 393
# MCF7 = tested on: MCF7
# CAKI-1 = tested on: CAKI-1
# U-251 = tested on: U-251
# DU-145 = tested on: DU-145
# K562 = tested on: K562
# IGROV-1 = tested on: IGROV-1
# OVCAR-8 = tested on: OVCAR-8
# TK-10 = tested on: TK-10
# COLO 205 = tested on: COLO 205
# SK-MEL-5 = tested on: SK-MEL-5
# RPMI-8226 = tested on: RPMI-8226
# MOLT-4 = tested on: MOLT-4
# SW-620 = tested on: SW-620
# KM12 = tested on: KM12
# NCI-H226 = tested on: NCI-H226
# SK-MEL-28 = tested on: SK-MEL-28
# LOX IMVI = tested on: LOX IMVI
# SK-MEL-2 = tested on: SK-MEL-2
# SF-539 = tested on: SF-539
# SN12C = tested on: SN12C
# SNB-19 = tested on: SNB-19
# A549 = tested on: A549
# HCT-116 = tested on: HCT-116
# Hs-578T = tested on: Hs-578T
# M14 = tested on: M14
# UACC-257 = tested on: UACC-257
# A498 = tested on: A498
# MDA-MB-231 = tested on: MDA-MB-231
# NCI-H460 = tested on: NCI-H460
# EKVX = tested on: EKVX
# BT-549 = tested on: BT-549
# UACC-62 = tested on: UACC-62
# ACHN = tested on: ACHN
# HCT-15 = tested on: HCT-15
# NCI/ADR-RES = tested on: NCI/ADR-RES
# NCI-H23 = tested on: NCI-H23
# MDA-MB-435 = tested on: MDA-MB-435
# SF-268 = tested on: SF-268
# CCRF-CEM = tested on: CCRF-CEM
# NCI-H522 = tested on: NCI-H522
# Malme-3M = tested on: Malme-3M
structure (smiles),measurement,setting,value
Cc1ccc(S(=O)(=O)n2cc(-c3cnc(N)c(Br)n3)c3ccccc32)cc1,GI50,MDA-N,0.246 µM (active)
same,GI50,HT-29,1.47 µM (inactive)
same,GI50,786-0,2.33 µM (inactive)
same,GI50,SK-OV-3,4.26 µM (inactive)
same,GI50,PC-3,2.92 µM (inactive)
same,GI50,OVCAR-4,5.18 µM (inactive)
same,GI50,HOP-92,3.94 µM (inactive)
same,GI50,UO-31,4.18 µM (inactive)
same,GI50,HL-60,0.372 µM (active)
same,GI50,OVCAR-3,1.02 µM (active)
same,GI50,OVCAR-5,4.39 µM (inactive)
same,GI50,HOP-62,6.73 µM (inactive)
same,GI50,T47D,6.76 µM (inactive)
same,GI50,HCC 2998,3.29 µM (inactive)
same,GI50,SF-295,1.95 µM (inactive)
same,GI50,SR,0.764 µM (active)
same,GI50,SNB-75,1.42 µM (inactive)
same,GI50,RXF 393,0.484 µM (active)
same,GI50,MCF7,0.757 µM (active)
same,GI50,CAKI-1,3.32 µM (inactive)
same,GI50,U-251,0.902 µM (active)
same,GI50,DU-145,1.31 µM (inactive)
same,GI50,K562,0.841 µM (active)
same,GI50,IGROV-1,1.3 µM (inactive)
same,GI50,OVCAR-8,4.06 µM (inactive)
same,GI50,TK-10,11.4 µM (inactive)
same,GI50,COLO 205,2.46 µM (inactive)
same,GI50,SK-MEL-5,2.91 µM (inactive)
same,GI50,RPMI-8226,1.78 µM (inactive)
same,GI50,MOLT-4,0.977 µM (active)
same,GI50,SW-620,1.04 µM (active)
same,GI50,KM12,1.36 µM (inactive)
same,GI50,NCI-H226,31.2 µM (inactive)
same,GI50,SK-MEL-28,6.27 µM (inactive)
same,GI50,LOX IMVI,2.94 µM (inactive)
same,GI50,SK-MEL-2,10.8 µM (inactive)
same,GI50,SF-539,1.15 µM (inactive)
same,GI50,SN12C,1.31 µM (inactive)
same,GI50,SNB-19,1.01 µM (active)
same,GI50,A549,2.22 µM (inactive)
same,GI50,HCT-116,0.83 µM (active)
same,GI50,Hs-578T,0.863 µM (active)
same,GI50,M14,1.37 µM (inactive)
same,GI50,UACC-257,12.9 µM (inactive)
same,GI50,A498,2.68 µM (inactive)
same,GI50,MDA-MB-231,2.54 µM (inactive)
same,GI50,NCI-H460,3.18 µM (inactive)
same,GI50,EKVX,3.48 µM (inactive)
same,GI50,BT-549,22.7 µM (inactive)
same,GI50,UACC-62,3.7 µM (inactive)
same,GI50,ACHN,5.46 µM (inactive)
same,GI50,HCT-15,1.21 µM
same,GI50,NCI/ADR-RES,2.04 µM (inactive)
same,GI50,NCI-H23,1.56 µM (inactive)
same,GI50,MDA-MB-435,0.238 µM (active)
same,GI50,SF-268,2.96 µM (inactive)
CC(=O)O[C@@H]1C[C@@]2(C)[C@@H]3CC=C4[C@@H](C[C@H](O)C(=O)C4(C)C)[C@]3(C)C(=O)C[C@]2(C)[C@H]1[C@@](C)(O)C(=O)/C=C/C(C)(C)OC(C)=O,GI50,MDA-N,1.37 µM (inactive)
same,GI50,HT-29,1.08 µM (active)
same,GI50,786-0,0.352 µM (active)
same,GI50,SK-OV-3,< 0.0251 µM (active)
same,GI50,PC-3,1.59 µM (inactive)
same,GI50,OVCAR-4,0.789 µM (active)
same,GI50,HOP-92,0.912 µM (active)
same,GI50,UO-31,0.298 µM (active)
same,GI50,HL-60,0.746 µM (active)
same,GI50,OVCAR-3,4.81 µM (inactive)
same,GI50,OVCAR-5,12.8 µM (inactive)
same,GI50,HOP-62,0.731 µM (active)
same,GI50,T47D,10.1 µM (inactive)
same,GI50,HCC 2998,0.035 µM (active)
same,GI50,SF-295,1.2 µM (inactive)
same,GI50,SR,3.33 µM (inactive)
same,GI50,SNB-75,1.85 µM (inactive)
same,GI50,MCF7,3.57 µM (inactive)
same,GI50,CAKI-1,0.211 µM (active)
same,GI50,U-251,0.617 µM (active)
same,GI50,DU-145,2.03 µM (inactive)
same,GI50,K562,1.51 µM (inactive)
same,GI50,IGROV-1,0.368 µM (active)
same,GI50,OVCAR-8,1.47 µM (inactive)
same,GI50,TK-10,0.0787 µM (active)
same,GI50,COLO 205,1.5 µM (inactive)
same,GI50,SK-MEL-5,1.99 µM (inactive)
same,GI50,RPMI-8226,2.02 µM (inactive)
same,GI50,MOLT-4,3.33 µM (inactive)
same,GI50,SW-620,0.516 µM (active)
same,GI50,KM12,4.84 µM (inactive)
same,GI50,NCI-H226,0.338 µM (active)
same,GI50,SK-MEL-28,0.365 µM (active)
same,GI50,CCRF-CEM,1.61 µM (inactive)
same,GI50,LOX IMVI,2.74 µM (inactive)
same,GI50,SK-MEL-2,1.26 µM (inactive)
same,GI50,SF-539,1.25 µM (inactive)
same,GI50,SN12C,0.957 µM (active)
same,GI50,SNB-19,3.21 µM (inactive)
same,GI50,A549,0.881 µM (active)
same,GI50,HCT-116,1.63 µM (inactive)
same,GI50,Hs-578T,4.71 µM (inactive)
same,GI50,M14,0.592 µM (active)
same,GI50,UACC-257,0.594 µM (active)
same,GI50,A498,0.0151 µM (active)
same,GI50,MDA-MB-231,2.78 µM (inactive)
same,GI50,NCI-H460,0.428 µM (active)
same,GI50,EKVX,2.72 µM (inactive)
same,GI50,NCI-H522,0.541 µM (active)
same,GI50,BT-549,0.336 µM (active)
same,GI50,UACC-62,2.63 µM (inactive)
same,GI50,ACHN,0.16 µM (active)
same,GI50,HCT-15,0.875 µM
same,GI50,NCI/ADR-RES,3.64 µM (inactive)
same,GI50,NCI-H23,5.26 µM (inactive)
same,GI50,MDA-MB-435,1.01 µM (active)
same,GI50,SF-268,1.01 µM (active)
O=C(c1ccccc1)n1c(Cc2ccccc2)nc2cc(C34CC5CC(CC(C5)C3)C4)ccc21,GI50,MDA-N,47 µM (inactive)
same,GI50,HT-29,43.6 µM (inactive)
same,GI50,786-0,61.9 µM (inactive)
same,GI50,SK-OV-3,96.2 µM (inactive)
same,GI50,PC-3,49 µM (inactive)
same,GI50,OVCAR-4,> 100 µM (inactive)
same,GI50,HOP-92,24 µM (inactive)
same,GI50,UO-31,35.2 µM (inactive)
same,GI50,HL-60,33.7 µM (inactive)
same,GI50,OVCAR-5,56.8 µM (inactive)
same,GI50,HOP-62,56.4 µM (inactive)
same,GI50,T47D,36.7 µM (inactive)
same,GI50,HCC 2998,77.3 µM (inactive)
same,GI50,SF-295,52.2 µM (inactive)
same,GI50,SR,39.6 µM (inactive)
same,GI50,SNB-75,31.6 µM (inactive)
same,GI50,RXF 393,27.4 µM (inactive)
same,GI50,MCF7,24.4 µM (inactive)
same,GI50,CAKI-1,> 100 µM (inactive)
same,GI50,U-251,44.6 µM (inactive)
same,GI50,DU-145,56.5 µM (inactive)
same,GI50,K562,> 100 µM (inactive)
same,GI50,IGROV-1,53.6 µM (inactive)
same,GI50,OVCAR-8,37.2 µM (inactive)
same,GI50,TK-10,> 100 µM (inactive)
same,GI50,COLO 205,27.7 µM (inactive)
same,GI50,SK-MEL-5,27 µM (inactive)
same,GI50,RPMI-8226,31.8 µM (inactive)
same,GI50,MOLT-4,35.9 µM (inactive)
same,GI50,SW-620,80.7 µM (inactive)
same,GI50,KM12,69.7 µM (inactive)
same,GI50,Malme-3M,29.3 µM (inactive)
same,GI50,NCI-H226,58.3 µM (inactive)
same,GI50,SK-MEL-28,84.3 µM (inactive)
same,GI50,CCRF-CEM,50.5 µM (inactive)
same,GI50,LOX IMVI,30.5 µM (inactive)
same,GI50,SK-MEL-2,31.9 µM (inactive)
same,GI50,SN12C,35.8 µM (inactive)
same,GI50,SNB-19,58.1 µM (inactive)
same,GI50,A549,37.7 µM (inactive)
same,GI50,HCT-116,44.3 µM (inactive)
same,GI50,Hs-578T,> 100 µM (inactive)
same,GI50,M14,43.4 µM (inactive)
same,GI50,UACC-257,53.1 µM (inactive)
same,GI50,A498,62.1 µM (inactive)
same,GI50,MDA-MB-231,54.2 µM (inactive)
same,GI50,NCI-H460,52.7 µM (inactive)
same,GI50,EKVX,81.8 µM (inactive)
same,GI50,NCI-H522,37.3 µM (inactive)
same,GI50,BT-549,46.5 µM (inactive)
same,GI50,UACC-62,48.6 µM (inactive)
same,GI50,ACHN,34.8 µM (inactive)
same,GI50,HCT-15,18.2 µM
same,GI50,NCI/ADR-RES,31.8 µM (inactive)
same,GI50,NCI-H23,27.4 µM (inactive)
same,GI50,MDA-MB-435,92 µM (inactive)
same,GI50,SF-268,> 100 µM (inactive)
